Laboratory results from patent US20140024527A1, “HERBICIDAL PYRAZINONES” (E I DU DE NEMOURS AND COMPANY, priority 2011, published 2014).

Key:
Type in all cases: in vivo
[1] = test system: barnyardgrass (Echinochloa crus-galli); test: Test B flooded paddy test; conditions: Flood
Text: (§1) Plant species in the flooded paddy test consisted of rice (Oryza sativa), umbrella sedge (Cyperus difformis), ducksalad (Heteranthera limosa) and barnyardgrass (Echinochloa crus-galli) grown to the 2-leaf stage for testing. At time of treatment, test pots were flooded to 3 cm above the soil surface, treated by application of test compounds directly to the paddy water, and then maintained at that water depth for the duration of the test. Treated plants and controls were maintained in a greenhouse for 13 to 15 days, after which time all species were compared to controls and visually evaluated. Plant response ratings, summarized in Table B, are based on a scale of 0 to 100 where 0 is no effect and 100 is complete control. A dash (-) response means no test result.

[2] = test system: umbrella sedge (Cyperus difformis); test: Test B flooded paddy test; conditions: Flood, scale 0 to 100
Text: as §1

rice (Oryza sativa) = test: Test B flooded paddy test; conditions: Flood, scale 0 to 100
Text: as §1

[3] = test system: ducksalad (Heteranthera limosa); test: Test B flooded paddy test; conditions: Flood, scale 0 to 100
Text: as §1

[4] = test system: large crabgrass (Digitaria sanguinalis); test: Test A postemergence; conditions: 0 to 100 scale, 0 no effect, 100 complete control, approx. 10 days
Text: (§2) Seeds of barnyardgrass (Echinochloa crus-galli), large crabgrass (Digitaria sanguinalis), giant foxtail (Setaria faberii), morningglory (Ipomoea spp.), pigweed (Amaranthus retroflexus), velvetleaf (Abutilon theophrasti), wheat (Triticum aestivum) and corn (Zea mays) were planted into a blend of loam soil and sand and treated preemergence with a directed soil spray using test chemicals formulated in a non-phytotoxic solvent mixture which included a surfactant. At the same time these species were also treated with postemergence applications of test compounds formulated in the same manner. Plants ranged in height from 2 to 10 cm and were in the one- to two-leaf stage for the postemergence treatments. Treated plants and untreated controls were maintained in a greenhouse for approximately 10 days, after which time all treated plants were compared to untreated controls and visually evaluated for injury. Plant response ratings, summarized in Table A, are based on a 0 to 100 scale where 0 is no effect and 100 is complete control.

corn (Zea mays) [5] = test: Test A postemergence; conditions: 0 to 100 scale, 0 no effect, 100 complete control, approx. 10 days
Text: as §2

[6] = test system: pigweed (Amaranthus retroflexus); test: Test A postemergence; conditions: 0 to 100 scale, 0 no effect, 100 complete control, approx. 10 days
Text: as §2

[7] = test system: barnyardgrass (Echinochloa crus-galli); test: Test A postemergence; conditions: 0 to 100 scale, 0 no effect, 100 complete control, approx. 10 days
Text: as §2

[8] = test system: velvetleaf (Abutilon theophrasti); test: Test A postemergence; conditions: 0 to 100 scale, 0 no effect, 100 complete control, approx. 10 days
Text: as §2

[9] = test system: wheat (Triticum aestivum); test: Test A postemergence; conditions: 0 to 100 scale, 0 no effect, 100 complete control, approx. 10 days
Text: as §2

[10] = test system: giant foxtail (Setaria faberii); test: Test A postemergence; conditions: 0 to 100 scale, 0 no effect, 100 complete control, approx. 10 days
Text: as §2

[11] = test system: morningglory (Ipomoea spp.); test: Test A postemergence; conditions: 0 to 100 scale, 0 no effect, 100 complete control, approx. 10 days
Text: as §2

[12] = test system: large crabgrass (Digitaria sanguinalis); test: Test A preemergence; conditions: 0 to 100 scale, 0 no effect, 100 complete control, approx. 10 days
Text: as §2

corn (Zea mays) [13] = test: Test A preemergence; conditions: 0 to 100 scale, 0 no effect, 100 complete control, approx. 10 days
Text: as §2

[14] = test system: pigweed (Amaranthus retroflexus); test: Test A preemergence; conditions: 0 to 100 scale, 0 no effect, 100 complete control, approx. 10 days
Text: as §2

[15] = test system: barnyardgrass (Echinochloa crus-galli); test: Test A preemergence; conditions: 0 to 100 scale, 0 no effect, 100 complete control, approx. 10 days
Text: as §2

[16] = test system: velvetleaf (Abutilon theophrasti); test: Test A preemergence; conditions: 0 to 100 scale, 0 no effect, 100 complete control, approx. 10 days
Text: as §2

[17] = test system: wheat (Triticum aestivum); test: Test A preemergence; conditions: 0 to 100 scale, 0 no effect, 100 complete control, approx. 10 days
Text: as §2

[18] = test system: giant foxtail (Setaria faberii); test: Test A preemergence; conditions: 0 to 100 scale, 0 no effect, 100 complete control, approx. 10 days
Text: as §2

[19] = test system: morningglory (Ipomoea spp.); test: Test A preemergence; conditions: 0 to 100 scale, 0 no effect, 100 complete control, approx. 10 days
Text: as §2

[20] = 250 g ai/ha, scale 0 to 100 (0 no effect, 100 complete control)

COCCn1c(-c2cccc(F)c2)c(Cl)nc(C(=O)C2=C(O)CCCC2=O)c1=O [Compound 7, 5-chloro-6-(3-fluorophenyl)-3-[(2-hydroxy-6-oxo-1-cyclohexen-1-yl)carbonyl]-1-(2-methoxyethyl)-2(1H)pyrazinone]
Plant response rating, Barnyardgrass ([1]; 31 g ai/ha, scale 0 to 100): 0
Plant response rating, Barnyardgrass ([1]; 62 g ai/ha, scale 0 to 100): 0
Plant response rating, Barnyardgrass ([1]; 125 g ai/ha, scale 0 to 100): 10
Plant response rating, Barnyardgrass [1, 20]: 20
Plant response rating, Sedge, Umbrella ([2]; 31 g ai/ha): 0
Plant response rating, Sedge, Umbrella ([2]; 62 g ai/ha): 20
Plant response rating, Sedge, Umbrella ([2]; 125 g ai/ha): 50
Plant response rating, Sedge, Umbrella ([2]; 250 g ai/ha): 75
Plant response rating, Rice (rice (Oryza sativa); 31 g ai/ha): 0
Plant response rating, Rice (rice (Oryza sativa); 62 g ai/ha): 0
Plant response rating, Rice (rice (Oryza sativa); 125 g ai/ha): 0
Plant response rating, Rice (rice (Oryza sativa); 250 g ai/ha): 15
Plant response rating, Ducksalad ([3]; 31 g ai/ha): 0
Plant response rating, Ducksalad ([3]; 62 g ai/ha): 40
Plant response rating, Ducksalad ([3]; 125 g ai/ha): 50
Plant response rating, Ducksalad ([3]; 250 g ai/ha): 80
Plant response rating, Crabgrass, Large ([4]; 125 g ai/ha): 0
Plant response rating, Crabgrass, Large ([4]; 500 g ai/ha): 10
Plant response rating, Corn (corn (Zea mays) [5]; 125 g ai/ha): 0
Plant response rating, Corn (corn (Zea mays) [5]; 500 g ai/ha): 20
Plant response rating, Pigweed ([6]; 125 g ai/ha): 80
Plant response rating, Pigweed ([6]; 500 g ai/ha): 90
Plant response rating, Barnyardgrass ([7]; 125 g ai/ha): 20
Plant response rating, Barnyardgrass ([7]; 500 g ai/ha): 80
Plant response rating, Velvetleaf ([8]; 125 g ai/ha): 100
Plant response rating, Velvetleaf ([8]; 500 g ai/ha): 100
Plant response rating, Wheat ([9]; 125 g ai/ha): 0
Plant response rating, Wheat ([9]; 500 g ai/ha): 0
Plant response rating, Foxtail, Giant ([10]; 125 g ai/ha): 0
Plant response rating, Foxtail, Giant ([10]; 500 g ai/ha): 0
Plant response rating, Morningglory ([11]; 125 g ai/ha): 80
Plant response rating, Morningglory ([11]; 500 g ai/ha): 90
Plant response rating, Crabgrass, Large ([12]; 125 g ai/ha): 0
Plant response rating, Crabgrass, Large ([12]; 500 g ai/ha): 0
Plant response rating, Corn (corn (Zea mays) [13]; 125 g ai/ha): 0
Plant response rating, Corn (corn (Zea mays) [13]; 500 g ai/ha): 0
Plant response rating, Pigweed ([14]; 125 g ai/ha): 0
Plant response rating, Pigweed ([14]; 500 g ai/ha): 50
Plant response rating, Barnyardgrass ([15]; 125 g ai/ha): 0
Plant response rating, Barnyardgrass ([15]; 500 g ai/ha): 10
Plant response rating, Velvetleaf ([16]; 125 g ai/ha): 0
Plant response rating, Velvetleaf ([16]; 500 g ai/ha): 20
Plant response rating, Wheat ([17]; 125 g ai/ha): 0
Plant response rating, Wheat ([17]; 500 g ai/ha): 0
Plant response rating, Foxtail, Giant ([18]; 125 g ai/ha): 0
Plant response rating, Foxtail, Giant ([18]; 500 g ai/ha): 0
Plant response rating, Morningglory ([19]; 125 g ai/ha): 0
Plant response rating, Morningglory ([19]; 500 g ai/ha): 20

COCCCn1c(-c2cc(F)cc(F)c2)c(Cl)nc(C(=O)C2=C(O)CCCC2=O)c1=O [Compound 8]
Plant response rating, Barnyardgrass ([1]; 31 g ai/ha, scale 0 to 100): 0
Plant response rating, Barnyardgrass ([1]; 62 g ai/ha, scale 0 to 100): 0
Plant response rating, Barnyardgrass ([1]; 125 g ai/ha, scale 0 to 100): 0
Plant response rating, Barnyardgrass [1, 20]: 40
Plant response rating, Sedge, Umbrella ([2]; 31 g ai/ha): 0
Plant response rating, Sedge, Umbrella ([2]; 62 g ai/ha): 40
Plant response rating, Sedge, Umbrella ([2]; 125 g ai/ha): 40
Plant response rating, Sedge, Umbrella ([2]; 250 g ai/ha): 75
Plant response rating, Rice (rice (Oryza sativa); 31 g ai/ha): 0
Plant response rating, Rice (rice (Oryza sativa); 62 g ai/ha): 0
Plant response rating, Rice (rice (Oryza sativa); 125 g ai/ha): 0
Plant response rating, Rice (rice (Oryza sativa); 250 g ai/ha): 25
Plant response rating, Ducksalad ([3]; 31 g ai/ha): 0
Plant response rating, Ducksalad ([3]; 62 g ai/ha): 0
Plant response rating, Ducksalad ([3]; 125 g ai/ha): 30
Plant response rating, Ducksalad ([3]; 250 g ai/ha): 80
Plant response rating, Crabgrass, Large ([4]; 31 g ai/ha): 0
Plant response rating, Crabgrass, Large ([4]; 125 g ai/ha): 30
Plant response rating, Corn (corn (Zea mays) [5]; 31 g ai/ha): 0
Plant response rating, Corn (corn (Zea mays) [5]; 125 g ai/ha): 0
Plant response rating, Pigweed ([6]; 31 g ai/ha): 20
Plant response rating, Pigweed ([6]; 125 g ai/ha): 40
Plant response rating, Barnyardgrass ([7]; 31 g ai/ha): 0
Plant response rating, Barnyardgrass ([7]; 125 g ai/ha): 10
Plant response rating, Velvetleaf ([8]; 31 g ai/ha): 10
Plant response rating, Velvetleaf ([8]; 125 g ai/ha): 50
Plant response rating, Wheat ([9]; 31 g ai/ha): 0
Plant response rating, Wheat ([9]; 125 g ai/ha): 0
Plant response rating, Foxtail, Giant ([10]; 31 g ai/ha): 0
Plant response rating, Foxtail, Giant ([10]; 125 g ai/ha): 10
Plant response rating, Morningglory ([11]; 31 g ai/ha): 0
Plant response rating, Morningglory ([11]; 125 g ai/ha): 50
Plant response rating, Crabgrass, Large ([12]; 31 g ai/ha): 20
Plant response rating, Crabgrass, Large ([12]; 125 g ai/ha): 40
Plant response rating, Corn (corn (Zea mays) [13]; 31 g ai/ha): 0
Plant response rating, Corn (corn (Zea mays) [13]; 125 g ai/ha): 0
Plant response rating, Pigweed ([14]; 31 g ai/ha): 0
Plant response rating, Pigweed ([14]; 125 g ai/ha): 10
Plant response rating, Barnyardgrass ([15]; 31 g ai/ha): 0
Plant response rating, Barnyardgrass ([15]; 125 g ai/ha): 10
Plant response rating, Velvetleaf ([16]; 31 g ai/ha): 0
Plant response rating, Velvetleaf ([16]; 125 g ai/ha): 0
Plant response rating, Wheat ([17]; 31 g ai/ha): 0
Plant response rating, Wheat ([17]; 125 g ai/ha): 0
Plant response rating, Foxtail, Giant ([18]; 31 g ai/ha): 0
Plant response rating, Foxtail, Giant ([18]; 125 g ai/ha): 0
Plant response rating, Morningglory ([19]; 31 g ai/ha): 0
Plant response rating, Morningglory ([19]; 125 g ai/ha): 10
